Experimental data reported in patent US12576169B2, “Silicon-fluoride acceptor substituted radiopharmaceuticals and precursors thereof” (Technische Universität München, priority 2019, dated 2026).
Where two headings read alike, the source gives them in different places.

Columns and labels:
[1] = n-Octanol-PBS partition coefficient (logD7.4); type: physicochemical; settings: 18F-labeled ligand; n-octanol/PBS pH=7.4; mean ± SD (n = 5)
Experimental: Approx. 0.5 MBq of the ^18F-labeled SiFA-PSMA ligand were added into a test tube containing n-octanol (500 μL) and PBS (500 μL, pH=7.4). After vigorously shaking the two-phase mixture for 3 min at rt, the test tube was centrifuged at 9.000 rpm for 5 min to achieve quantitative phase separation. Finally, 150 μL of each layer were pipetted off and measured for activity using a gamma counter. After repeating the experiment for at least five times, the n-octanol-PBS partition coefficient log D7.4 was calculated according to following formula.

[2] = biological target: PSMA (Homo sapiens, UniProt Q04609); experiment: IC50 determination: PSMA binding affinity, competition with [125I]XII on LNCaP cells
Chain of PSMA (Q04609 whole entry): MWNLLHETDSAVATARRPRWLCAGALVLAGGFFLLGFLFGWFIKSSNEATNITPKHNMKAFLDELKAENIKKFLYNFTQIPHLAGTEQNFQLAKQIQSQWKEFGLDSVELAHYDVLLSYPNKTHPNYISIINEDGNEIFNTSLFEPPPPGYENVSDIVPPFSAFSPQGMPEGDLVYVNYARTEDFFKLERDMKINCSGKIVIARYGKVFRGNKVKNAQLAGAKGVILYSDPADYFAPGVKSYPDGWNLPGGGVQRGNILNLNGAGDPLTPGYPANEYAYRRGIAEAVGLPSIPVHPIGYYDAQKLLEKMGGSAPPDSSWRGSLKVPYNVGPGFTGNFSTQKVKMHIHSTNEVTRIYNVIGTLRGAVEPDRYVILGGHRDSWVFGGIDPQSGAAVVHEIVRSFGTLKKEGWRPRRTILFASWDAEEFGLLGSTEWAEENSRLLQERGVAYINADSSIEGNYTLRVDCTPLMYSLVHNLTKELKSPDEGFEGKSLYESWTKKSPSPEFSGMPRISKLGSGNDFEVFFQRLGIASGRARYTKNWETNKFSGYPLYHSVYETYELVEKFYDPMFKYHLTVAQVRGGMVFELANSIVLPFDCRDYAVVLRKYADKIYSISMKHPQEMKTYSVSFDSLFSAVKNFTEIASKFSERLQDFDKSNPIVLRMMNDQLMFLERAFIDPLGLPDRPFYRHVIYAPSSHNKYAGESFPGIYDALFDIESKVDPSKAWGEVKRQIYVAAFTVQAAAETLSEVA
Experimental: LNCaP cells were grown in Dulbecco's Modified Eagle Medium/Nutrient Mixture F-12 (DMEM/F-12, add. 10% fetal calf serum (FCS), v/v) and maintained at 37° C. in a humidified 5% CO2 atmosphere. […] After removal of the culture medium, LNCaP cells were treated with HBSS (add. 1% BSA, v/v, 4° C., 500 μL) and subsequently left 15 min on ice for equilibration in HBSS (add. 1% BSA, v/v, 4° C., 200 μL). […] For the control series, HBSS (add. 1% BSA, v/v, 25 μL) was used instead of the SiFA-PSMA ligand solution. Each concentration and the control were prepared in triplicate. After 1 h incubation on ice, the assay medium was removed and cells were washed with HBSS (200 μL, 4° C.). […] NaOH (200 μL) for at least 10 min and the resulting cell lysate was removed. The wells were treated again with 1 M aq. […] The experiment was repeated for at least three times and the IC50 value calculated using the GraphPad PRISM 8.0.2 software (Graphpad Software Inc., La Jolla, United States).

[3] = biological target: T1, human serum albumin (HSA) (Homo sapiens, UniProt P02768); experiment: Binding to HSA on a Chiralpak HSA column; type: in vitro ADME; settings: calibration with nine reference substances
T1 construct: purchased H13H-2433
T1 sequence (P02768 25-609): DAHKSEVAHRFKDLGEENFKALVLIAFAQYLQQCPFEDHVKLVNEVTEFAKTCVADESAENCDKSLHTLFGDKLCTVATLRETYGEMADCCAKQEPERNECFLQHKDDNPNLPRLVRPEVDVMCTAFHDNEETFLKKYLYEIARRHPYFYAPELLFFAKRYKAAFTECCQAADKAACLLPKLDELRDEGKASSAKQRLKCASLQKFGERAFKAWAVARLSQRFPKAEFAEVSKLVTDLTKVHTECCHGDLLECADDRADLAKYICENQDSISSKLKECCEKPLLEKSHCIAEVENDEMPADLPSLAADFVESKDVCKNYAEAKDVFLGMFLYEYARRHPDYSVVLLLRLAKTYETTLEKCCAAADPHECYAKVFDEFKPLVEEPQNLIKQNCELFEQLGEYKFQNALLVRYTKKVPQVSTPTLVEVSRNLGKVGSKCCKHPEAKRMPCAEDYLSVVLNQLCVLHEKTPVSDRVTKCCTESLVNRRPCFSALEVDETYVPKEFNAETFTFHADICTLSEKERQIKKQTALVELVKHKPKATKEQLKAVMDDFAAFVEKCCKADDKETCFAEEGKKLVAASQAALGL
Experimental: For the determination of human serum albumin (HSA) binding, a Chiralpak HSA column (50×3 mm, 5 μm, H13H-2433) was used at a constant flow rate of 0.5 mL/min. The mobile phase composed of a 50 mM NH4OAc solution in water with pH=7 (solvent C) and isopropanol (solvent D) was freshly prepared for each experiment and used only once. The reference substances (Table 1) as well as the analyzed SiFA-PSMA ligands were dissolved in a mixture of solvent C/solvent D (1:1, v/v, 0.5 mg/mL) and eluted from the HSA column (0-3 min: 100% C, 3-20 min: 20% D in C, λ=254 nm). The column was kept at rt and each run was stopped after detection of the signal to reduce the acquisition time. The nine reference substances display an HSA binding range of 13% to 99% and were injected consecutively in order to establish a sigmoidal calibration curve with the software OriginPro 2018b (FIG. 1).

[4] = test system: LNCaP cells; experiment: Internalization of 18F-labeled ligands into LNCaP cells; type: cell-based, human; settings: internalized activity at 1 h in % of reference [125I]XII; c = 0.5 nM; LNCaP cells (125.000 cells/well); 37° C., DMEM/F-12 add. 5% BSA; corrected for non-specific binding (10 μm PMPA); mean ± SD (n = 3)
Experimental: LNCaP cells were grown in DMEM/F-12 (add. 10% FCS, v/v) and maintained at 37° C. in a humidified 5% CO2 atmosphere. […] Subsequent to the removal of the culture medium, cells were washed with DMEM-F12 (add. 5% BSA, v/v, 500 μL) and left to equilibrate in DMEM-F12 (add. 5% BSA, v/v, 200 μL) at 37° C. for 15 min. Each well was treated with either DMEM-F12 (add. 5% BSA, v/v, 25 μL) or a 2-(phosphonomethyl)-pentandioic acid (PMPA) solution (100 μM in PBS, 25 μL) for blockade. Afterwards, the ^18F-labeled SiFA-PSMA ligand (5 nM in PBS, 25 μL) was added and the cells were incubated for 1 h at 37° C. The experiment was terminated by placing the 24-well plate on ice for 3 min and removal of the assay medium. Each well was rinsed with HBSS (4° C., 250 μL) and the fractions were combined with the previous assay medium, representing the amount of unbound radioligand. For removal of surface bound activity, LNCaP cells were incubated with PMPA solution (10 μM in PBS, 4° C., 250 μL) for 5 min and rinsed again with PBS (250 μL, 4° C.). The internalized activity was determined by incubation of LNCaP cells with 1 M aq. NaOH (250 μL) for at least 10 min and combination with the fraction of a subsequent wash step with 1 M aq. NaOH (200 μL). Each experiment (control and blockade) was performed in triplicate. […] All internalization studies were accompanied by reference studies using the reference compound XII (2 nM in HBSS add. 1% BSA, v/v), which were performed analogously. Data were corrected for non-specific internalization and normalized to the specific-internalization observed for the radioiodinated reference compound.

[5] = LNCaP cells (150.000 cells/well), reference [125I]XII c = 0.2 nM, 1 h, 4° C., HBSS add. 1% BSA, mean ± SD (n = 3)

CC(C)(C)[Si](F)(c1ccc(C(=O)NC[C@@H](NC(=O)[C@@H](CC(=O)O)NC(=O)CC[C@H](NC(=O)N[C@@H](CCC(=O)O)C(=O)O)C(=O)O)C(=O)N[C@H](CCCCNC(=O)CCC(=O)NCCC[C@@H](NC(=O)CC[C@H](NC(=O)N[C@@H](CCC(=O)O)C(=O)O)C(=O)O)C(=O)O)C(=O)O)cc1)C(C)(C)C [SiFA-PSMA ligand 01 a]
logD7.4 [1]: −4.02 ± 0.04 | IC50 [2, 5]: 7.8 ± 0.8 nM | Binding to HSA [3]: ≥99.0% | Internalization [4]: 162.54 ± 7.08%

CC(C)(C)[Si](F)(c1ccc(C(=O)NC[C@@H](NC(=O)[C@@H](CCC(=O)O)NC(=O)CC[C@H](NC(=O)N[C@@H](CCC(=O)O)C(=O)O)C(=O)O)C(=O)N[C@H](CCCCNC(=O)CCC(=O)NCCC[C@@H](NC(=O)CC[C@H](NC(=O)N[C@@H](CCC(=O)O)C(=O)O)C(=O)O)C(=O)O)C(=O)O)cc1)C(C)(C)C [SiFA-PSMA ligand 01 b]
logD7.4 [1]: −4.04 ± 0.08 | IC50 [2, 5]: 11.8 ± 2.2 nM | Binding to HSA [3]: ≥99.0% | Internalization [4]: 126.43 ± 4.23%

CC(C)(C)[Si](F)(c1ccc(C(=O)NC[C@@H](NC(=O)[C@H](CCC(=O)O)NC(=O)CC[C@H](NC(=O)N[C@@H](CCC(=O)O)C(=O)O)C(=O)O)C(=O)N[C@H](CCCCNC(=O)CCC(=O)NCCC[C@@H](NC(=O)CC[C@H](NC(=O)N[C@@H](CCC(=O)O)C(=O)O)C(=O)O)C(=O)O)C(=O)O)cc1)C(C)(C)C [SiFA-PSMA ligand 01 c]
logD7.4 [1]: −3.72 ± 0.02 | IC50 [2, 5]: 17 ± 0.9 nM | Binding to HSA [3]: ≥98.9% | Internalization [4]: 175.08 ± 5.93%

CC(C)(C)[Si](F)(c1ccc(C(=O)NC[C@@H](NC(=O)[C@@H](CCCNC(N)=O)NC(=O)CC[C@H](NC(=O)N[C@@H](CCC(=O)O)C(=O)O)C(=O)O)C(=O)N[C@H](CCCCNC(=O)CCC(=O)NCCC[C@@H](NC(=O)CC[C@H](NC(=O)N[C@@H](CCC(=O)O)C(=O)O)C(=O)O)C(=O)O)C(=O)O)cc1)C(C)(C)C [SiFA-PSMA ligand 01 d]
logD7.4 [1]: −3.28 ± 0.03 | IC50 [2, 5]: 13 ± 1.2 nM | Binding to HSA [3]: ≥98.9% | Internalization [4]: 95.68 ± 9.86%

CC(C)(C)[Si](F)(c1ccc(C(=O)NC[C@@H](NC(=O)[C@@H](CN)NC(=O)CC[C@H](NC(=O)N[C@@H](CCC(=O)O)C(=O)O)C(=O)O)C(=O)N[C@H](CCCCNC(=O)CCC(=O)NCCC[C@@H](NC(=O)CC[C@H](NC(=O)N[C@@H](CCC(=O)O)C(=O)O)C(=O)O)C(=O)O)C(=O)O)cc1)C(C)(C)C [SiFA-PSMA ligand 01 e]
logD7.4 [1]: −3.96 ± 0.07 | IC50 [2, 5]: 9.2 ± 1.4 nM | Binding to HSA [3]: ≥99.0% | Internalization [4]: 125.13 ± 1.14%

CC(C)(C)[Si](F)(c1ccc(C(=O)NC[C@@H](NC(=O)[C@@H](CCCN)NC(=O)CC[C@H](NC(=O)N[C@@H](CCC(=O)O)C(=O)O)C(=O)O)C(=O)N[C@H](CCCCNC(=O)CCC(=O)NCCC[C@@H](NC(=O)CC[C@H](NC(=O)N[C@@H](CCC(=O)O)C(=O)O)C(=O)O)C(=O)O)C(=O)O)cc1)C(C)(C)C [SiFA-PSMA ligand 01 f]
logD7.4 [1]: −3.65 ± 0.09 | IC50 [2, 5]: 8.3 ± 1.5 nM | Binding to HSA [3]: 98.9% | Internalization [4]: 123.13 ± 2.14%

CC(C)(C)[Si](F)(c1ccc(C(=O)NC[C@@H](NC(=O)[C@@H](CCCCN)NC(=O)CC[C@H](NC(=O)N[C@@H](CCC(=O)O)C(=O)O)C(=O)O)C(=O)N[C@H](CCCCNC(=O)CCC(=O)NCCC[C@@H](NC(=O)CC[C@H](NC(=O)N[C@@H](CCC(=O)O)C(=O)O)C(=O)O)C(=O)O)C(=O)O)cc1)C(C)(C)C [SiFA-PSMA ligand 01 g]
logD7.4 [1]: −3.71 ± 0.03 | IC50 [2, 5]: 8.7 ± 0.7 nM | Binding to HSA [3]: 98.9% | Internalization [4]: 104.75 ± 4.37%

CC(C)(C)[Si](F)(c1ccc(C(=O)NC[C@@H](NC(=O)[C@H](CCCCN)NC(=O)CC[C@H](NC(=O)N[C@@H](CCC(=O)O)C(=O)O)C(=O)O)C(=O)N[C@H](CCCCNC(=O)CCC(=O)NCCC[C@@H](NC(=O)CC[C@H](NC(=O)N[C@@H](CCC(=O)O)C(=O)O)C(=O)O)C(=O)O)C(=O)O)cc1)C(C)(C)C [SiFA-PSMA ligand 01 h]
logD7.4 [1]: −3.71 ± 0.16 | IC50 [2, 5]: 8.7 ± 0.6 nM | Binding to HSA [3]: 98.7% | Internalization [4]: 142.95 ± 7.49%

CC(C)(C)[Si](F)(c1ccc(C(=O)NC[C@@H](NC(=O)CNC(=O)CC[C@H](NC(=O)N[C@@H](CCC(=O)O)C(=O)O)C(=O)O)C(=O)N[C@H](CCCCNC(=O)CCC(=O)NCCC[C@@H](NC(=O)CC[C@H](NC(=O)N[C@@H](CCC(=O)O)C(=O)O)C(=O)O)C(=O)O)C(=O)O)cc1)C(C)(C)C [SiFA-PSMA ligand 01 i]
logD7.4 [1]: −3.96 ± 0.04 | IC50 [2, 5]: 8.8 ± 1.7 nM | Binding to HSA [3]: 98.9% | Internalization [4]: 160.83 ± 2.72%

C[C@H](O)[C@@H](NC(=O)CC[C@H](NC(=O)N[C@@H](CCC(=O)O)C(=O)O)C(=O)O)C(=O)N[C@H](CNC(=O)c1ccc([Si](F)(C(C)(C)C)C(C)(C)C)cc1)C(=O)N[C@H](CCCCNC(=O)CCC(=O)NCCC[C@@H](NC(=O)CC[C@H](NC(=O)N[C@@H](CCC(=O)O)C(=O)O)C(=O)O)C(=O)O)C(=O)O [SiFA-PSMA ligand 01 j]
logD7.4 [1]: −3.86 ± 0.07 | IC50 [2, 5]: 9.2 ± 1.2 nM | Binding to HSA [3]: ≥98.9% | Internalization [4]: 120.83 ± 0.92%

CC(C)(C)[Si](F)(c1ccc(C(=O)NC[C@@H](NC(=O)[C@@H](Cc2ccccc2)NC(=O)CC[C@H](NC(=O)N[C@@H](CCC(=O)O)C(=O)O)C(=O)O)C(=O)N[C@H](CCCCNC(=O)CCC(=O)NCCC[C@@H](NC(=O)CC[C@H](NC(=O)N[C@@H](CCC(=O)O)C(=O)O)C(=O)O)C(=O)O)C(=O)O)cc1)C(C)(C)C [SiFA-PSMA ligand 01 k]
logD7.4 [1]: −2.99 ± 0.02 | IC50 [2, 5]: 29.4 ± 0.6 nM | Binding to HSA [3]: ≥98.9% | Internalization [4]: 61.61 ± 1.33%

CC(C)(C)[Si](F)(c1ccc(C(=O)NC[C@@H](NC(=O)[C@H](N)CNC(=O)CC[C@H](NC(=O)N[C@@H](CCC(=O)O)C(=O)O)C(=O)O)C(=O)N[C@H](CCCCNC(=O)CCC(=O)NCCC[C@@H](NC(=O)CC[C@H](NC(=O)N[C@@H](CCC(=O)O)C(=O)O)C(=O)O)C(=O)O)C(=O)O)cc1)C(C)(C)C [SiFA-PSMA ligand 02 a]
logD7.4 [1]: −3.65 ± 0.09 | IC50 [2]: 10.2 ± 1.2 nM | Binding to HSA [3]: ≥98.9% | Internalization [4]: 231.60 ± 14.21%

CC(C)(C)[Si](F)(c1ccc(C(=O)NC[C@@H](NC(=O)CCCCCNC(=O)CC[C@H](NC(=O)N[C@@H](CCC(=O)O)C(=O)O)C(=O)O)C(=O)N[C@H](CCCCNC(=O)CCC(=O)NCCC[C@@H](NC(=O)CC[C@H](NC(=O)N[C@@H](CCC(=O)O)C(=O)O)C(=O)O)C(=O)O)C(=O)O)cc1)C(C)(C)C [SiFA-PSMA ligand 02 c]
logD7.4 [1]: −3.27 ± 0.02 | IC50 [2, 5]: 5.9 ± 1 nM | Binding to HSA [3]: ≥99.0% | Internalization [4]: 156.95 ± 13.21%

CC(C)(C)[Si](F)(c1ccc(C(=O)N[C@H](CC(=O)N[C@H](CC(=O)NCCC[C@@H](NC(=O)c2cc(C(=O)O)cc(C(=O)O)c2)C(=O)NCCCC[C@@H](NC(=O)CC[C@H](NC(=O)N[C@@H](CCC(=O)O)C(=O)O)C(=O)O)C(=O)O)C(=O)O)C(=O)N[C@H](CC(=O)NCCC[C@@H](NC(=O)c2cc(C(=O)O)cc(C(=O)O)c2)C(=O)NCCCC[C@@H](NC(=O)CC[C@H](NC(=O)N[C@@H](CCC(=O)O)C(=O)O)C(=O)O)C(=O)O)C(=O)O)cc1)C(C)(C)C [SiFA-PSMA ligand 07]
logD7.4 [1]: −3.45 ± 0.01 | IC50 [2]: 5.5 ± 0.6 nM | Internalization [4]: 311.75 ± 7.30%
